In PubChem BioAssay AID2743 (NMMLSC, 2010):
Activity calls are given as the source filed them.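 Rule for the calls: active = fitted half-maximal concentration for change in GFP expression of 33 µM or less; inactive = the rest.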

Experiment: potency of AGP1-GFP expression modulators in yeast, dose response, cell-based, flow cytometry, S. cerevisiae, MLPCN hits (AID 2743)
Conditions: S. cerevisiae AGP1-GFP strain, flow cytometry GFP, 3 h; at 33 µM (top of the series)

Cc1ccc(NN2C(=O)C=C(c3ccc(Cl)cc3)C2=O)cc1
GFP fluorescence (kMESF): 44.4 kMESF (inactive)

Cc1nn2c(-c3ccncc3)nnc2c2ccccc12
GFP fluorescence (kMESF): 22.9 kMESF (inactive)

O=C(Nc1cccc(-c2csc(Nc3ccccc3)n2)c1)c1ccccc1
GFP fluorescence (kMESF): 31 kMESF (inactive)

O=C(Nc1cccc(C(F)(F)F)c1)Oc1ccc(Cl)c2cccnc12
GFP fluorescence (kMESF): 31.6 kMESF (inactive)

CC(Oc1ccc2ccccc2c1)C(=O)NNC(=S)NC(=O)c1ccco1 (stereo not given)
GFP fluorescence (kMESF): 32.1 kMESF (inactive)

CCOc1ccc(N2C(=O)/C(=C\c3cccs3)C(=O)NC2=S)cc1
GFP fluorescence (kMESF): 27.9 kMESF (inactive)

Cc1ccc(N=c2ssnc2Cl)cc1
GFP fluorescence (kMESF): 43.2 kMESF (inactive)

COCCN1C(=O)/C(=C/c2ccc(N3CCCC3)cc2C)SC1=S
GFP fluorescence (kMESF): 44.5 kMESF (inactive)

Clc1ccc(N=c2ssnc2Cl)cc1
GFP fluorescence (kMESF): 39.8 kMESF (inactive)

Cc1ccc(C(c2cc(Cl)c3cccnc3c2O)N2CCN(C)CC2)cc1 (stereo not given)
GFP fluorescence (kMESF): 27.9 kMESF (inactive)

CCOc1ccc(C(Nc2cccnc2)c2cc(Cl)c3cccnc3c2O)cc1 (stereo not given)
GFP fluorescence (kMESF): 36.3 kMESF (inactive)

COc1ccc(C2=CC3=C(Br)C(=O)C(C)(O)C(=O)C3=CO2)cc1 (stereo not given)
GFP fluorescence (kMESF): 2.12 kMESF (inactive)

O=c1c2cc(Cl)ccc2nc(-c2ccc([N+](=O)[O-])cc2)n1O
GFP fluorescence (kMESF): 23 kMESF (inactive)

CC1=NNC(=O)/C1=C\c1cn(-c2ccccc2)nc1-c1cccs1
GFP fluorescence (kMESF): 37.3 kMESF (inactive)

COc1ccc(-c2cc3cc(C(=O)O)ccn3c2C(=O)c2ccccc2)cc1
GFP fluorescence (kMESF): 43.2 kMESF (inactive)

CCC(=O)Nc1ccc(NC(=O)c2cc3ccccc3o2)c(OC)c1
GFP fluorescence (kMESF): 44.6 kMESF (inactive)

Cc1cccc(C(=O)NNC(=S)NC(=O)c2ccccc2)c1
GFP fluorescence (kMESF): 44.8 kMESF (inactive)

[O-][n+]1cccc2c(Br)cc(Br)c(O)c21
GFP fluorescence (kMESF): 50.1 kMESF (inactive)

COc1cccc2cc(-c3nc4ccccc4o3)c(=O)oc12
GFP fluorescence (kMESF): 20.9 kMESF (inactive)

COc1ccc2c(c1)S/C(=C\C(=O)c1ccncc1)N2C
GFP fluorescence (kMESF): 17.8 kMESF (inactive)

N/C(=N\OC(=O)c1ccc(Cl)cc1Cl)c1ccccc1
GFP fluorescence (kMESF): 27.3 kMESF (inactive)

COc1cc(C=C2C(=O)c3ccccc3C2=O)cc(OC)c1
GFP fluorescence (kMESF): 38 kMESF (inactive)

O=C(O)c1ccc2c(c1)C(=O)/C(=C/c1ccccc1)C2=O
GFP fluorescence (kMESF): 40.5 kMESF (inactive)

O=[N+]([O-])c1cc(Cl)c2cccnc2c1O
GFP fluorescence (kMESF): 22.6 kMESF (inactive)

C[n+]1ccc(/C=C/c2c[nH]c3ccccc23)cc1
GFP fluorescence (kMESF): 44 kMESF (inactive)

CC(=O)OC[C@]12CC[C@H]3[C@@](C)(CC[C@H]4C(C)(C)CCC[C@]34C)[C@@H]1C[C@H](C1=CC(=O)O[C@@H]1OC(C)=O)O2
GFP fluorescence (kMESF): 31 kMESF (inactive)

CCCCC1OC23CCCCC2C(C#N)(C(=N)O3)C1(C#N)C#N (stereo not given)
GFP fluorescence (kMESF): 43.3 kMESF (inactive)

CC(=O)Oc1ccc(/C=c2\sc3ncnn3c2=O)cc1
GFP fluorescence (kMESF): 36.7 kMESF (inactive)

Clc1cccc(CN2COc3c(cc(Cl)c4cccnc34)C2)c1
GFP fluorescence (kMESF): 35.6 kMESF (inactive)

O=C1c2sc3nc4ccccc4n3c2C(=O)N1c1ccccc1Cl
GFP fluorescence (kMESF): 23.1 kMESF (inactive)

O=[N+]([O-])c1cc(S(=O)(=O)C(F)(F)F)ccc1Sc1nc2ccccc2s1
GFP fluorescence (kMESF): 39.1 kMESF (inactive)

COc1cccc(C(=O)Nc2nnc(-c3ccc(Cl)cc3)o2)c1
GFP fluorescence (kMESF): 34.6 kMESF (inactive)

COc1ccccc1N1C(=O)c2cccc3c(C(=O)O)ccc(c23)C1=O
GFP fluorescence (kMESF): 49 kMESF (inactive)

O=C(CS(=O)c1ccccc1[N+](=O)[O-])Oc1ccc(Br)cc1 (stereo not given)
GFP fluorescence (kMESF): 42.8 kMESF (inactive)

C#CCOCCOCCOCCNc1nc(N2CCN(C(=O)CCCCCCCCCCNC(=O)[C@H](CCCCN)n3cc(CCO)nn3)CC2)nc(N2CCN(C(=O)CCCCCCCCCCNC(=O)[C@H](CCCN=C(N)N)n3cc(C[C@@H](C)CC)nn3)CC2)n1
GFP fluorescence (kMESF): 45.1 kMESF (inactive)

O=C(Oc1c(Cl)cc(Cl)c2cccnc12)c1cccc([N+](=O)[O-])c1
GFP fluorescence (kMESF): 34.3 kMESF (inactive)

O=C1C=CC(=O)N1c1ccc(Sc2ccc([N+](=O)[O-])cc2)cc1
GFP fluorescence (kMESF): 38.7 kMESF (inactive)

Cc1ccccc1OCCOC(=O)c1ccc(S(=O)(=O)N2CCCC2)cc1
GFP fluorescence (kMESF): 38.1 kMESF (inactive)

Cc1cc(S(=O)(=O)ON2C(=O)c3ccccc3C2=O)ccc1F
GFP fluorescence (kMESF): 43.2 kMESF (inactive)

O=C(c1ccc(Cl)c([N+](=O)[O-])c1)N1CCN(c2ccccc2)CC1
GFP fluorescence (kMESF): 62.6 kMESF (inactive)

Cc1[nH]c2ccccc2c1C(=O)COC(=O)c1ccc([N+](=O)[O-])s1
GFP fluorescence (kMESF): 16.9 kMESF (inactive)

O=C(NNC(=S)NC(=O)C12CC3CC(CC(C3)C1)C2)c1ccncc1
GFP fluorescence (kMESF): 33.2 kMESF (inactive)

C[C@@H]1C[C@@H]([C@H](O)CC2CC(=O)NC(=O)C2)C(=O)[C@@H](C)C1
GFP fluorescence (kMESF): 26.8 kMESF (inactive)

Cc1[nH]c(-c2ccccn2)nc(=S)c1Cl
GFP fluorescence (kMESF): 51 kMESF (inactive)

Oc1c(Br)cc(Br)cc1C=Nc1ccc2[nH]ncc2c1
GFP fluorescence (kMESF): 37.5 kMESF (inactive)

Oc1c(Br)cc(Br)cc1C=Nc1ccc2c(c1)OCO2
GFP fluorescence (kMESF): 42.9 kMESF (inactive)

Cc1cc(NC(c2ccc(Cl)cc2)c2ccc3cccnc3c2O)no1 (stereo not given)
GFP fluorescence (kMESF): 34 kMESF (inactive)

COc1cc(SSc2cc(OC)cc([N+](=O)[O-])c2N)c(N)c([N+](=O)[O-])c1
GFP fluorescence (kMESF): 48.9 kMESF (inactive)

CS(=O)(=O)N1N=C(c2ccccc2)CC1c1ccc2c(c1)OCO2 (stereo not given)
GFP fluorescence (kMESF): 126 kMESF (inactive)

O=[N+]([O-])c1cc(Cl)cc(/C=N\Nc2ccccn2)c1O
GFP fluorescence (kMESF): 30.3 kMESF (inactive)

Cc1cc(C2CCCCC2)n(O)c(=O)c1
GFP fluorescence (kMESF): 37.5 kMESF (inactive)

C/C(=N\NC(=O)c1cccc(Br)c1)c1ccccn1
GFP fluorescence (kMESF): 42.1 kMESF (inactive)

Cc1ccc(S(=O)(=O)N2CC(C(=O)O)=CC[C@H]2c2ccc(Cl)cc2)cc1
GFP fluorescence (kMESF): 39.2 kMESF (inactive)

Cc1ccc(C2=NN(S(C)(=O)=O)C(c3ccc4c(c3)OCO4)C2)cc1 (stereo not given)
GFP fluorescence (kMESF): 44.1 kMESF (inactive)

O=C(COc1c(Br)cc(Br)c2cccnc12)N1CCc2ccccc2C1
GFP fluorescence (kMESF): 28.6 kMESF (inactive)

Cc1ccc(C)c(/C=C/C(=O)c2ccccc(=O)c2O)c1
GFP fluorescence (kMESF): 10.5 kMESF (inactive)

COc1ccc(C(=O)/C=C2/C(=O)Nc3ccccc32)cc1OC
GFP fluorescence (kMESF): 43.9 kMESF (inactive)

N/C(Cc1ccc(Cl)cc1Cl)=N\OC(=O)c1cccs1
GFP fluorescence (kMESF): 27.9 kMESF (inactive)

CCCCCCCCC/C(=N\O)c1ccccn1
GFP fluorescence (kMESF): 34.8 kMESF (inactive)

N=C1/C(=C\c2coc3ccccc3c2=O)C(=O)N=C2SC(c3ccncc3)=NN12
GFP fluorescence (kMESF): 44.7 kMESF (inactive)

O=C1N(c2ccccc2C(F)(F)F)O[C@]1(c1ccccc1)C1CCCCC1
GFP fluorescence (kMESF): 34.3 kMESF (inactive)

O=C(COc1ccc(F)cc1Cl)Nc1nc(-c2ccccn2)cs1
GFP fluorescence (kMESF): 33.9 kMESF (inactive)

O=C(Oc1ccnc2cc(Cl)ccc12)N1CCOCC1
GFP fluorescence (kMESF): 35.7 kMESF (inactive)

On1ccccc1=S
GFP fluorescence (kMESF): 35.2 kMESF (inactive)

N#C/C(=C\c1cc(Br)ccc1F)C(=O)NC1CC1
GFP fluorescence (kMESF): 30.6 kMESF (inactive)

O=[N+]([O-])c1ccc(S(=O)(=O)c2ccccc2)nc1
GFP fluorescence (kMESF): 44.6 kMESF (inactive)

CCOC(=O)Cn1cc(/C=C/[N+](=O)[O-])c2ccccc21
GFP fluorescence (kMESF): 43.7 kMESF (inactive)

O=[N+]([O-])c1ccc(Sc2nc3ccccc3o2)c([N+](=O)[O-])c1
GFP fluorescence (kMESF): 37.2 kMESF (inactive)

CCCc1cc(N2CCN(c3ccccn3)CC2)n2nc(C)c(-c3ccccc3)c2n1
GFP fluorescence (kMESF): 38.8 kMESF (inactive)

CSc1nnc2c3cc(F)ccc3n(C)c2n1
GFP fluorescence (kMESF): 25.3 kMESF (inactive)

CC(Oc1ccc(Cl)cc1)C(=O)NNC(=S)NC(=O)c1ccco1 (stereo not given)
GFP fluorescence (kMESF): 34.2 kMESF (inactive)

O=C(COc1ccccc1)N1CCN(c2ncnc3c2cnn3-c2ccccc2)CC1
GFP fluorescence (kMESF): 35.1 kMESF (inactive)

CCOc1ccc(N/N=C(/C#N)C(N)=O)cc1
GFP fluorescence (kMESF): 54.7 kMESF (inactive)

CCOC(=O)/C(=C\c1cn(C)c2ccccc12)[N+](=O)[O-]
GFP fluorescence (kMESF): 41.9 kMESF (inactive)

CC(C)C[C@]1(c2ccccc2)ON(c2ccccc2C(F)(F)F)C1=O
GFP fluorescence (kMESF): 34.6 kMESF (inactive)

CC(C)(C)C(=O)NC(=S)NNC(=O)c1ccc(-c2ccccc2)cc1
GFP fluorescence (kMESF): 44.1 kMESF (inactive)

COc1ccc2c(c1)c(/C=C/c1cc[n+](C)cc1)cn2C
GFP fluorescence (kMESF): 46.7 kMESF (inactive)

Cc1cc(NC(=O)c2cccnc2Cl)ccc1NC(=O)c1cc2ccccc2o1
GFP fluorescence (kMESF): 42.4 kMESF (inactive)

CCc1cc(C(=O)Nc2nc(-c3ccccn3)cs2)sc1C
GFP fluorescence (kMESF): 29.2 kMESF (inactive)

Cc1ccc(-c2nc(N)c3c(-c4ccc(C)cc4)nn(C(C)(C)C)c3n2)cc1
GFP fluorescence (kMESF): 38.4 kMESF (inactive)

CCN(CC)c1ccc(/C=C2/C(=O)c3ccc(C(=O)O)cc3C2=O)cc1
GFP fluorescence (kMESF): 655 kMESF (inactive)

CC1=CC(=O)C(C(C)C)=C/C1=N/OS(=O)(=O)c1ccccc1
GFP fluorescence (kMESF): 36.5 kMESF (inactive)

COc1cc(/C=C2\C(=O)ON=C2c2ccc(Cl)cc2)ccc1O
GFP fluorescence (kMESF): 33 kMESF (inactive)

COc1ccc(N=Cc2nc(-c3ccccc3)oc2OC(=O)c2ccccc2)cc1
GFP fluorescence (kMESF): 39.5 kMESF (inactive)

O=C(/C=C/c1cc(Br)ccc1O)c1ccco1
GFP fluorescence (kMESF): 40.2 kMESF (inactive)

CCC1(c2ccccc2)ON(c2c(Br)cccc2Br)C1=O (stereo not given)
GFP fluorescence (kMESF): 28.9 kMESF (inactive)

Cn1ncc(S(=O)(=O)Cc2ccccc2)c(Cl)c1=O
GFP fluorescence (kMESF): 43.9 kMESF (inactive)

CN(C)NC(=S)Nc1ccc(S(=O)(=O)N2CCCCC2)cc1
GFP fluorescence (kMESF): 40.4 kMESF (inactive)

O=[N+]([O-])c1ccc(N=Nc2c(Cl)cc(O)cc2Cl)cc1
GFP fluorescence (kMESF): 41.8 kMESF (inactive)

COc1cc(/C=C2\C(=O)ON=C2c2ccccc2)cc(OC)c1OC
GFP fluorescence (kMESF): 32.3 kMESF (inactive)
